According to ChEMBL document CHEMBL1201862, “PubChem BioAssay data set” (2004):
Active and inactive are the calls of the source.

Experiments:
Cytochrome P450 2D6 = Cytochrome P450 2D6 (Homo sapiens, UniProt P10635); experiment: qHTS Assay for Inhibitors and Substrates of Cytochrome P450 2D6. [Related pubchem assays: 410 ]; assay type: ADME; conditions: read-out: Potency
Bcl-2-like protein 10 = Bcl-2-like protein 10 (Homo sapiens, UniProt Q9HD36); experiment: Concentration-response of Bcl-B inhibitors by biochemical FP with TR3 (AID 1243); assay type: functional
HEK293 = experiment: Fluorescence-based counterscreen for potentiators or agonists of NPY-Y2: cell-based high-throughput dose response assay to identify inhibitors of cyclic nucleotide gated ion channel (CNGC) activity. In this assay, the parental HEK293 cell line transfected with a cyclic-nucleotide gated ion channel (CNGC)-based cAMP sensor is used to measure inhibition of isoproterenol-induced CNGC activity by test compound.; assay type: functional; conditions: Homo sapiens;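 further: stimulus is 1 µM isoproterenol at EC100 plus PDE inhibitor Ro 20-1724 at 25 µM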
[1] = target: T1, Heat shock factor protein 1 (Mus musculus, UniProt P38532); experiment: enhancement of HSF1-driven luciferase signal – cell-based, NIH3T3, luminescence, dose retest, confirmation (AID 435004); assay type: functional;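 further: stress induced by proteasome inhibitor MG132 added 30 min after compound; luciferase reporter driven by HSF1 response element in NIH3T3 cells; actives raise luminescence as potentiators of the MG132 stress response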
T1 sequence (P38532 whole entry): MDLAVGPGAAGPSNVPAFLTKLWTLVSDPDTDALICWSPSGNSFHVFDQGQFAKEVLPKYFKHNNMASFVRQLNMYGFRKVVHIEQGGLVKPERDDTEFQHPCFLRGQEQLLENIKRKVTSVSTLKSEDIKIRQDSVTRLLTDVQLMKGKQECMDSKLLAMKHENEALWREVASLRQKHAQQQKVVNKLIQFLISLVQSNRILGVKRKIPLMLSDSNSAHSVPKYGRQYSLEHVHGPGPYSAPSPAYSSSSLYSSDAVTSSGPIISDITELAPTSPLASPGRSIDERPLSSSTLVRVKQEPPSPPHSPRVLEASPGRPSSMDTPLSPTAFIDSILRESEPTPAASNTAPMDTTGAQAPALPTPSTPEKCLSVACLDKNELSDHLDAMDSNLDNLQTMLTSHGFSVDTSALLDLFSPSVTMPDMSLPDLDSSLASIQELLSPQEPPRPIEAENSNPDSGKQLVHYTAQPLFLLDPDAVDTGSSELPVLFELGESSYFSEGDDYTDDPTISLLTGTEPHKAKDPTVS

[2] = target: Neuropeptide Y receptor type 1 (Homo sapiens, UniProt P25929); experiment: Fluorescence-based counterscreen for agonists of NPY-Y2: cell-based high-throughput dose response assay for agonists of NPY-Y1.; assay type: functional
[3] = target: Neuropeptide Y receptor type 2 (Homo sapiens, UniProt P49146); experiment: Fluorescence-based cell-based high-throughput dose response assay for agonists of NPY-Y2. [Related pubchem assays: 1703 (Screening assay (CNGC inhibitors).), 1359 (Screening assay (NPY-Y2 potentiators or agonists).), 1304 (Screening assay (NPY-Y1 potentiators or agonists).), 1710 (Screening assay (NPY-Y2 agonists).), 1791 (Summary AID.)]; assay type: functional
[4] = Shn3 3'UTR reporter signal decrease – cell-based, Clone20 osteoblasts, firefly luciferase, cherry-pick, set 2, Schnurri-3 inhibitor project, dose response (AID 720490); assay type: functional;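 further: actives lower the luminescence signal as inhibitors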
[5] = blockers of HIV-1 ZM109 envelope-driven cell-cell fusion – HeLa effector, CEM target cells, luciferase, cherry-pick, dose response (AID 652058); assay type: functional, cell-based;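 further: luciferase signal from HIV-1 Env mediated cell-cell fusion of effector and target cells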
HT-1080 = experiment: HT1080 cell viability loss – fluorescence readout (AID 620); assay type: functional, cell-based; conditions: Homo sapiens
[6] = off-target signal loss in HeLa-CEM21 co-culture – HeLa F-luc CTL cells, cherry-picked, counter-screen for HIV-1 Env fusion inhibitor project, dose response (AID 652040); assay type: functional, cell-based;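 further: potency for signal decrease marking cytotoxic or nonspecific inhibition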
[7] = blockers of HIV-1 envelope-mediated cell-cell fusion – cherry-pick, dose response (AID 652057); assay type: functional, cell-based
[8] = general cell-killing toxicity readout – plate reader, dry powder samples, cytotoxicity control for PAX8 inhibitor project, dose response (AID 743021); assay type: functional, cell-based
[9] = Luminescence-based counterscreen assay for KLF5 inhibitors: dose response cell-based high throughput screening assay to identify cytotoxic compounds using the IEC-6 intestinal epithelial cell line. [Related pubchem assays: 1700 (Primary screen.), 1834 (Confirmation screen.), 1858 (Summary AID.), 1905 (Counterscreen.)]; assay type: functional
[10] = HEK-293T viability loss after treatment – luminescence, T-cell screen hits, cytotoxicity control for TCR NF-kB inhibitor project, dose response (AID 489026); assay type: functional, cell-based;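 further: cells exposed to compound about 14 hours before the viability readout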
Paired box protein Pax-8 = Paired box protein Pax-8 (Homo sapiens, UniProt Q06710); experiment: PAX8 transcriptional activity inhibition in RMG-I – RMG-I cells, luciferase, cherry-pick, dose response (AID 687027); assay type: functional, cell-based;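 further: luciferase reporter driven by Pax8 target thyroperoxidase promoter measured by SteadyGlo luminescence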
[11] = target: T1, Heat shock factor protein 1; experiment: decrease of HSF1-responsive luciferase luminescence – cell-based, NIH3T3, dose retest, confirmation (AID 2382); assay type: functional;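 further: NIH3T3 fibroblasts with HSF1-driven luciferase reporter stressed by proteasome inhibitor MG132; luminescence from HSF1-driven luciferase expression after 8 hours of MG132 stress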
[12] = reduction of Shn3 3'UTR-driven luciferase in osteoblasts – cell-based, Clone20 osteoblasts, firefly luciferase, cherry-picked, dose response (AID 624132); assay type: functional;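 further: firefly luciferase luminescence from reporter carrying the Shn3 3'UTR in osteoblasts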
[13] = target: T2, Microphthalmia-associated transcription factor (Homo sapiens, UniProt O75030); experiment: reducers of TRPM1 reporter luminescence, concentration series – cell-based, SK-MEL-5, cherry-picked, set 3, MITF inhibitor project, dose response (AID 493073); assay type: functional;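 further: SK-MEL-5 melanoma cells with luciferase driven by the MITF target TRPM1 promoter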
T2 sequence (O75030 whole entry): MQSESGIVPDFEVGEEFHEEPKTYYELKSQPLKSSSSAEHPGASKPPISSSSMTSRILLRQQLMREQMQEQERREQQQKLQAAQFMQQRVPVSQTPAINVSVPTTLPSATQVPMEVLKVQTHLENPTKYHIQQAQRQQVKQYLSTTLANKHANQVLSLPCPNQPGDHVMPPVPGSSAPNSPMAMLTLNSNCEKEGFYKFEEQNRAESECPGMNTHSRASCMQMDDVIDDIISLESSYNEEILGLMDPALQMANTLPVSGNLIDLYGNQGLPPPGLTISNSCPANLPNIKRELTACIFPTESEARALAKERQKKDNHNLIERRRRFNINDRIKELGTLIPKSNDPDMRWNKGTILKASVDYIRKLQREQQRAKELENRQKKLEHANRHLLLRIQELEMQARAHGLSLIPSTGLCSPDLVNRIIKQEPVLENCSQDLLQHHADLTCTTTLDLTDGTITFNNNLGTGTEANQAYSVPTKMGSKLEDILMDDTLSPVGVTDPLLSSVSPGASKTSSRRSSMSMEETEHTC

[14] = HIV-1 AD8 envelope cell-cell fusion blockers – cherry-pick, dose response (AID 652062); assay type: functional, cell-based;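 further: luciferase signal from cell-cell fusion driven by HIV-1 clade B AD8 Env; potency is for inhibitors of fusion seen as a drop in luminescence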
[15] = target: Luciferin 4-monooxygenase (Photinus pyralis, UniProt P08659); experiment: Counter Screen for Luciferase-based Assay Positives. [Related pubchem assays: 620, 618, 411 ]
[16] = M. tuberculosis H37Rv growth inhibitors, H37Rv strain (AID 1626); assay type: functional
[17] = microbe, parasite or virus in culture; assay type: functional; conditions: Mycobacterium tuberculosis
[18] = A High Throughput Confirmatory Assay used to Identify Novel Compounds that Inhibit Mycobacterium Tuberculosis in the absence of Glycerol.; assay type: functional

Luciferin 4-monooxygenase, sequence (P08659 whole entry): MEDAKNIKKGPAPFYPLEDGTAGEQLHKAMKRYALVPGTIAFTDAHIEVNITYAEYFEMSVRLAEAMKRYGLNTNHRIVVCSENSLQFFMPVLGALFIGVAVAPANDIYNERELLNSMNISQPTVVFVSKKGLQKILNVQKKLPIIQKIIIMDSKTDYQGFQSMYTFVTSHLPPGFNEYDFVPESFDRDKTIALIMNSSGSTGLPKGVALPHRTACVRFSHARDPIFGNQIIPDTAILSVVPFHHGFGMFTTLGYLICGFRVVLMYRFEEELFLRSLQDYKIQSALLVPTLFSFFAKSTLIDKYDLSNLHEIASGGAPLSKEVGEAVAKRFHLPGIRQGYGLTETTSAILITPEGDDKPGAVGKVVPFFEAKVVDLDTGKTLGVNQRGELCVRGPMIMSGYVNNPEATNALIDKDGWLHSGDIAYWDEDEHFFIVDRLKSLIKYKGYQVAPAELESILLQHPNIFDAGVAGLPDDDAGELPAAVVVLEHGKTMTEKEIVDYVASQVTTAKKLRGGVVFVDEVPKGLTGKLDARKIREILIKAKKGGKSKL
Neuropeptide Y receptor type 1, sequence (P25929 whole entry): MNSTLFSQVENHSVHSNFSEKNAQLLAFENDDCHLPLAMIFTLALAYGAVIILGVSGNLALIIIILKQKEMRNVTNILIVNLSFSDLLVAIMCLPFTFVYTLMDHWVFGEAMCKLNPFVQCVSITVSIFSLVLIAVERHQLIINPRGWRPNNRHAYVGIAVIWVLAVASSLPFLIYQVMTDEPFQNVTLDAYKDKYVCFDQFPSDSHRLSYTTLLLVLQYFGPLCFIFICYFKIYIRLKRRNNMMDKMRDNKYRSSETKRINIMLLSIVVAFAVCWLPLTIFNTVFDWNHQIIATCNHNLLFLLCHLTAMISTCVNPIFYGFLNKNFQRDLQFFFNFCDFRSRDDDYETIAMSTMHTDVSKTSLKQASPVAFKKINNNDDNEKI
Paired box protein Pax-8, sequence (Q06710 whole entry): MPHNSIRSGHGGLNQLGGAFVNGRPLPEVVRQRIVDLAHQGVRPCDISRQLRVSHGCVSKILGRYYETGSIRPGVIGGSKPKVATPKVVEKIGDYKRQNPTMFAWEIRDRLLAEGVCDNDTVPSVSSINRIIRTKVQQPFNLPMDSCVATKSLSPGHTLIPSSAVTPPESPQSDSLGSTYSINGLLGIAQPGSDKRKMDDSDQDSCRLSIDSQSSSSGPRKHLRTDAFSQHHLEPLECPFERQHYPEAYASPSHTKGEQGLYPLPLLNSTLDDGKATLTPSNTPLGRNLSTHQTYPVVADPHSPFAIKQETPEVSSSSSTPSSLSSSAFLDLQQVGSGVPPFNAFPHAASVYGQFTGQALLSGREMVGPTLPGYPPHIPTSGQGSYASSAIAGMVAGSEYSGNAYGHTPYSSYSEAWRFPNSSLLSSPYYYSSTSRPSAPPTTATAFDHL
Neuropeptide Y receptor type 2, sequence (P49146 whole entry): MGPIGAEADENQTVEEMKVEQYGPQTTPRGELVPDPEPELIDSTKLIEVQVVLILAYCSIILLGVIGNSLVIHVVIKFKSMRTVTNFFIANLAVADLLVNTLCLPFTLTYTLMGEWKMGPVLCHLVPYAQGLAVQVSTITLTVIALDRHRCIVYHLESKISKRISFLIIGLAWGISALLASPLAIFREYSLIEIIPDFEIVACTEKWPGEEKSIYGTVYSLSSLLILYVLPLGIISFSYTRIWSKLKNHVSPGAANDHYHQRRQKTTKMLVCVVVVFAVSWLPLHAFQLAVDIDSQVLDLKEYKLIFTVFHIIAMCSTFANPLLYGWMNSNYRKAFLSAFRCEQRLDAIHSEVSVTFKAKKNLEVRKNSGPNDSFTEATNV
Cytochrome P450 2D6, sequence (P10635 whole entry): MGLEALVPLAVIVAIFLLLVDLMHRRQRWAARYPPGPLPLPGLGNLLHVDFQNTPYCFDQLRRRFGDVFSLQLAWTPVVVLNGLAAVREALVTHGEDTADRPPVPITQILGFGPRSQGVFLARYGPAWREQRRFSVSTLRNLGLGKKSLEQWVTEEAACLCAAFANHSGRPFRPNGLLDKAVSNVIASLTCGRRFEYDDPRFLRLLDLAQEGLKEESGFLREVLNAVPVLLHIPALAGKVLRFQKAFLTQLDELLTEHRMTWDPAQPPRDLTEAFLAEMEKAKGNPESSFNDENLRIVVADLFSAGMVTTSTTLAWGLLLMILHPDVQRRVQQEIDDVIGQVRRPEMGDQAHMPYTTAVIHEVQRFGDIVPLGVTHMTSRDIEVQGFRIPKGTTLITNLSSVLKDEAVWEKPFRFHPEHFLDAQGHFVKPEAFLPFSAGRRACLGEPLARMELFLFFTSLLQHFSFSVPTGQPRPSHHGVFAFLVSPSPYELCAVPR
Bcl-2-like protein 10, sequence (Q9HD36 whole entry): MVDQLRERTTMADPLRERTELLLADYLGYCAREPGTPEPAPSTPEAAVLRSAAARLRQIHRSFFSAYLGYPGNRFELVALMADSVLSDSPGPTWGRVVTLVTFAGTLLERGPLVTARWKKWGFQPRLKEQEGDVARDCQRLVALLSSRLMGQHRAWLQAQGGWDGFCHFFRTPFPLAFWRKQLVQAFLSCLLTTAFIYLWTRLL

C=CCc1cccc(C2C(C)CCC3C(=O)N4C(Cc5c([nH]c6ccccc56)C4c4cc(OC)c(OC)c(OC)c4)C(=O)N32)c1 (stereo not drawn)
AC50 (Cytochrome P450 2D6): 3.98 µM (inconclusive)

CN(C)c1ccc(NC(=O)/C=C\C(=O)O)cc1
EC50 (Bcl-2-like protein 10): 20.4 µM (active)

COCCCNC(=O)c1cnc2ccc(S(=O)(=O)N3CCc4ccccc43)cc2c1O
EC50 (HEK293): > 35.4 µM (not active) | EC50 [1]: > 260 µM (inactive) | EC50 [2]: > 35.4 µM (not active) | EC50 [3]: > 35.4 µM (not active)

Cc1ccc(C(=O)Nc2cnc3ccccc3c2)cc1
AC50 [4]: 2.3 µM (active) | AC50 [5]: 13.9 µM (active) | EC50 (HT-1080): > 50 µM (not active) | AC50 [6]: 9.31 µM (active) | AC50 [7]: 2.29 µM (active) | AC50 [8]: 46 µM (active) | IC50 [9]: > 39.8 µM (not active) | IC50 [10]: > 80 µM (inactive) | AC50 (Paired box protein Pax-8): 3.57 µM (active) | EC50 [11]: 4.76 µM (active) | AC50 [12]: 4.04 µM (active) | AC50 [13]: 1.15 µM (active) | AC50 [14]: 4.14 µM (active) | EC50 [15]: > 100 µM (not active)

O=C(CSC1=NCCS1)Nc1ccc2ccccc2c1
IC50 [16]: > 100 µM (active)

Cc1ccc(-c2noc(=O)n2CC(=O)c2ccc(Cl)cc2)cc1
CC50 [17]: > 40 µM (active) | IC50 [18]: > 50 µM (active)
